Some test systems named below: TK-10 renal; SNB-75 CNS; OVCAR-8 ovarian; UACC-257 melanoma; COLO 205 colon; OVCAR-3 ovarian; 786-0 renal; SK-MEL-28 melanoma.
Common to all, as to assay: inhibition of tumour cell growth, NCI panel, 48 h

This is an account of results in PubChem BioAssay (NCI).

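Growth conditions: 96-well plates. Treatment: test compound, 48 hours, 5 concentrations. Analysis: linear interpolation between bracketing concentrations; unreached endpoints set to highest concentration. GI50 is the concentration that inhibits growth by half. The concentration for full growth arrest is given as TGI.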

As to `CN1CCc2nc3sc(C(N)=O)c(N)c3c(-c3cccs3)c2C1`, the GI50 in the assay with TK-10 renal is 3.32 µM; in the assay on SNB-75 CNS, 2.81 µM; in the assay on OVCAR-8 ovarian, 2.7 µM; with UACC-257 melanoma, 4 µM; in the assay with COLO 205 colon, 1.43 µM; in the assay with OVCAR-3 ovarian it was 2.16 µM. The values for the GI50 in the assay with 786-0 renal and with SK-MEL-28 melanoma were 4.41 µM and 2.91 µM, respectively. Moreover, the TGI with TK-10 renal is 13.1 µM; in the assay on SNB-75 CNS, 8.03 µM; with OVCAR-8 ovarian it was greater than 100 µM; in the assay on UACC-257 melanoma it was greater than 100 µM; in the assay on COLO 205 colon it was 3.66 µM; in the assay on OVCAR-3 ovarian it was 6.23 µM. Besides, the TGI was greater than 100 µM in the assay on 786-0 renal and 9.59 µM in the assay with SK-MEL-28 melanoma.
As for `CC(=O)O[C@@H]1C[C@@]2(C)[C@@H]3CC=C4[C@@H](C[C@H](O)C(=O)C4(C)C)[C@]3(C)C(=O)C[C@]2(C)[C@H]1[C@@](C)(O)C(=O)/C=C/C(C)(C)OC(C)=O`, the TGI with TK-10 renal was greater than 37.8 µM; with SNB-75 CNS, 25.3 µM; with OVCAR-8 ovarian, greater than 49.1 µM; with UACC-257 melanoma, 50.4 µM; in the assay on COLO 205 colon, greater than 39.7 µM; in the assay on OVCAR-3 ovarian it was greater than 100 µM. Further, the TGI with 786-0 renal is greater than 70.4 µM; in the assay on SK-MEL-28 melanoma, 29.4 µM.
As for `Fc1ccc(/C=N/n2c(-c3ccc(F)c(Cl)c3)n[nH]c2=S)cc1`, the GI50 in the assay with TK-10 renal is 24.1 µM; in the assay on SNB-75 CNS, 15.3 µM; in the assay with OVCAR-8 ovarian it was 34.7 µM; in the assay with UACC-257 melanoma it was 30.6 µM; in the assay with COLO 205 colon it was 37.3 µM; in the assay on OVCAR-3 ovarian, 18.3 µM. For the same molecule, the GI50 in the assay on 786-0 renal was 19.6 µM; with SK-MEL-28 melanoma, 42.1 µM. The TGI in the assay with TK-10 renal was 51 µM; in the assay with SNB-75 CNS, 30.1 µM; with OVCAR-8 ovarian it was greater than 100 µM; with UACC-257 melanoma, 83 µM; in the assay on COLO 205 colon, greater than 100 µM; with OVCAR-3 ovarian, 37.3 µM. In addition, the values for the TGI in the assay on 786-0 renal and in the assay with SK-MEL-28 melanoma were 38.3 µM and greater than 100 µM, respectively.
Consider `COc1ccc2c(-c3ccnc(Nc4cccc(OC(F)(F)F)c4)n3)cnn2n1`, for which the GI50 is 4.05 µM with TK-10 renal; 0.806 µM with SNB-75 CNS; 1.84 µM with OVCAR-8 ovarian; 1.55 µM with UACC-257 melanoma; 1.3 µM in the assay on COLO 205 colon; 0.661 µM in the assay with OVCAR-3 ovarian. In addition, the GI50 in the assay on 786-0 renal was 1.72 µM; in the assay on SK-MEL-28 melanoma, 3.47 µM. Besides, the TGI with TK-10 renal was 12.2 µM; with SNB-75 CNS, 4.88 µM; in the assay on OVCAR-8 ovarian, 10.5 µM; in the assay on UACC-257 melanoma it was greater than 25 µM; in the assay on COLO 205 colon, greater than 19.9 µM; in the assay on OVCAR-3 ovarian, 1.68 µM. Further, the TGI with 786-0 renal was 5.48 µM; in the assay on SK-MEL-28 melanoma, greater than 25 µM.
Turning to `CC1C=CC(OC(=O)C(C)(O)CCC(O)(C(=O)OC2CC(O)C(C(C)C)CC2(C)O)C(C)C)(C(C)C)CC1` (configuration not stated), the GI50 is 0.754 µM in the assay with TK-10 renal; 0.542 µM with SNB-75 CNS; 0.835 µM in the assay with OVCAR-8 ovarian; 0.911 µM in the assay with UACC-257 melanoma; 0.747 µM in the assay on COLO 205 colon; 0.188 µM with OVCAR-3 ovarian. Also, the GI50 in the assay on 786-0 renal was 0.681 µM; with SK-MEL-28 melanoma it was 2.1 µM. The TGI is 1.5 µM in the assay with TK-10 renal; 1.79 µM in the assay with SNB-75 CNS; 2.69 µM in the assay with OVCAR-8 ovarian; 2.56 µM in the assay on UACC-257 melanoma; 1.61 µM with COLO 205 colon; 0.409 µM in the assay on OVCAR-3 ovarian. The TGI with 786-0 renal stood at 1.37 µM; in the assay with SK-MEL-28 melanoma it was 8.27 µM.
On to `Cc1ccc(C2C3Cc4ccccc4C3=NN2c2ccc(S(=O)(=O)/N=c3\scc(-c4ccccc4)n3-c3ccccc3)cc2)cc1` (configuration not stated), for which the GI50 is 19.1 µM with TK-10 renal; 21.9 µM in the assay on OVCAR-8 ovarian; 20.4 µM with UACC-257 melanoma; 23.3 µM with COLO 205 colon; 16.6 µM in the assay with OVCAR-3 ovarian; 32 µM in the assay on 786-0 renal. Further, the TGI in the assay with TK-10 renal is 63.6 µM; in the assay on OVCAR-8 ovarian, 58.5 µM; in the assay with UACC-257 melanoma, 43.3 µM; in the assay on COLO 205 colon, 52.1 µM; in the assay with OVCAR-3 ovarian, 43.7 µM; with 786-0 renal, greater than 100 µM.
In the case of `C=CCc1cc(Nc2c3ccc(Cl)cc3nc3ccc(OC)cc23)cc(CN(CC)CC)c1O`, the GI50 in the assay with TK-10 renal was 1.97 µM; with SNB-75 CNS, 3.85 µM; in the assay with OVCAR-8 ovarian, 1.44 µM; in the assay on UACC-257 melanoma it was 2.21 µM; in the assay with COLO 205 colon it was 1.39 µM; in the assay with OVCAR-3 ovarian it was 1.88 µM. Further, the GI50 is 2.31 µM in the assay with 786-0 renal and 3.37 µM in the assay on SK-MEL-28 melanoma. The TGI in the assay with TK-10 renal came out at 11.1 µM; with SNB-75 CNS it was 19.3 µM; in the assay with UACC-257 melanoma it was 9.27 µM; with COLO 205 colon, 3 µM; in the assay on OVCAR-3 ovarian it was 11.5 µM; in the assay on 786-0 renal, 10.1 µM. Also, the TGI in the assay on SK-MEL-28 melanoma was 18.1 µM.
Turning to `O=C(CN1N=C(c2ccc(F)cc2)CCC1=O)Nc1nc2ccccc2s1`, the GI50 was greater than 100 µM with TK-10 renal; 17.9 µM in the assay on SNB-75 CNS; 0.788 µM with OVCAR-8 ovarian; greater than 100 µM with UACC-257 melanoma; greater than 100 µM in the assay with COLO 205 colon; 1.99 µM in the assay with OVCAR-3 ovarian. Besides, the GI50 with 786-0 renal was 0.235 µM; in the assay on SK-MEL-28 melanoma, greater than 100 µM. In addition, the TGI was greater than 100 µM in the assay with TK-10 renal; greater than 100 µM with SNB-75 CNS; 4.33 µM with OVCAR-8 ovarian; greater than 100 µM with UACC-257 melanoma; greater than 100 µM with COLO 205 colon; 4.16 µM in the assay on OVCAR-3 ovarian. The results for the TGI with 786-0 renal and in the assay on SK-MEL-28 melanoma were 0.607 µM and greater than 100 µM, respectively.
Turning to `CCC(=O)Nc1ccc(N2C(=O)/C(=C/c3ccc(OC)cc3)N=C2c2ccccc2)cc1`, the GI50 in the assay with TK-10 renal is 22.8 µM; in the assay on SNB-75 CNS it was 6.86 µM; with OVCAR-8 ovarian, 7.38 µM; in the assay on UACC-257 melanoma, 22.2 µM; in the assay on COLO 205 colon, 9.23 µM; in the assay on OVCAR-3 ovarian, greater than 50 µM. The values for the GI50 in the assay on 786-0 renal and with SK-MEL-28 melanoma were 16.5 µM and 14.6 µM, respectively. The TGI in the assay with TK-10 renal, in the assay on SNB-75 CNS, in the assay with OVCAR-8 ovarian, in the assay on UACC-257 melanoma, with COLO 205 colon and in the assay with OVCAR-3 ovarian was greater than 50 µM throughout. Further, the TGI in the assay on 786-0 renal and in the assay with SK-MEL-28 melanoma was greater than 50 µM in each case.
On to `CCN1C(=O)N(CC)C2C1NN=c1s/c(=C\c3ccc(F)cc3)c(=O)n12` (configuration not stated), for which the GI50 in the assay with TK-10 renal is 10.5 µM; in the assay on SNB-75 CNS it was 0.0474 µM; with OVCAR-8 ovarian it was 0.43 µM; in the assay with UACC-257 melanoma, 42.9 µM; in the assay on COLO 205 colon, 0.277 µM; with OVCAR-3 ovarian, 0.0924 µM. For the same molecule, the GI50 with 786-0 renal is 0.702 µM; with SK-MEL-28 melanoma it was 0.599 µM. For the same molecule, the TGI in the assay with TK-10 renal was greater than 100 µM; in the assay on SNB-75 CNS, 0.611 µM; in the assay with OVCAR-8 ovarian it was greater than 100 µM; with UACC-257 melanoma, greater than 100 µM; with COLO 205 colon it was 1.43 µM; in the assay with OVCAR-3 ovarian it was 0.664 µM. The TGI in the assay with 786-0 renal and in the assay on SK-MEL-28 melanoma was greater than 100 µM throughout.
